US8815946B2, “Inhibition of proliferation and fibrotic response of activated corneal stromal cells” (University of Pittsburgh—of the Commonwealth System of …, priority 2008, dated 2014)

Experiments:
[1] = test system: cornea; assay: Mouse corneal wound healing and LPS inflammation model, confocal microscopy of corneal thickness and morphology; format: in vivo, Mus musculus strain C57
From the text: (§1) A mouse model of corneal wound healing and inflammation induced by lipopolysacharide (LPS) was used to test the effect of EP. Khatari et al., Invest. Opthalmol. Vis. Sci. (2002) 43:2278-2284. Briefly, mice (Mus musculus strain C57, age approx. 2 months) were obtained from Charles River Laboratories in accordance with institutional protocols and divided into the following treatment groups (with 3 samples in each group):
(§2) Prior to wounding, all mice were anesthetized with an intraperitoneal injection of 50 mg/kg ketamine with 5 mg/kg xylazine. Topical anesthesia was further achieved with an additional 1 drop of 0.5% proparacaine per eye. Once the animal was sufficiently anesthetized, a corneal wound was constructed in each eye using a sterile 26-gauge needle that penetrated the epithelium and the superficial layers of the stroma. This linear scratch extended from the medial to lateral canthus (FIG. 12). 10 μg of the bacterial super-antigen LPS (Pseudomonas aeruginosa lipopolysaccharide, Sigma) was applied to the wound using a 10 μl pipette and allowed to penetrate the cornea for 5 minutes. Addition of bacterial endotoxin ensured a robust inflammatory response.
The wound was then washed with phosphate buffered saline (PBS/non-pyrogenic dH2O). Following the wash, the EP treatment groups received a 10 μl drop of 5% EP in PBS buffered to physiological pH with HEPES while the control group received PBS alone. Drops were applied to the corneal wound using a pipette and the mice were held by hand in such a way as to retain the drops on the eye for approximately 2 minutes. The delivery and concentration of EP was determined according to Devamanoharan et al. (1999); 200(1-2):103-09. […] Considering this quick absorption with the elimination half-life of EP, which is approximately 90 minutes, EP (500 mM) was applied every 90 minutes over the span of 12 hours during each day, followed by 12 hours of treatment overnight.
Animals were sacrificed and eyes harvested for analysis at 1 and 2 days post-wounding. After sacrificing, but prior to harvesting, eyes were imaged using the NIDEK CONFOSCAN 3® confocal microscope to analyze the morphology of the intact cornea. The images were later reconstructed into three-dimensional images in order to observe gross morphology, measure corneal thickness and light scattering which indicate edema and hypercellularity respectively.

[2] = test system: GR-1 neutrophils; assay: Mouse corneal wound model, FACS with neutrophil marker GR-1; format: in vivo, Mus musculus strain C57; details: day 2 post-wounding
From the text: as §1, §2
The wound was then washed with phosphate buffered saline (PBS/non-pyrogenic dH2O). […] The delivery and concentration of EP was determined according to Devamanoharan et al. (1999); 200(1-2):103-09. […]

[3] = test system: type III collagen, tenascin and fibronectin; assay: Western blot of TGF-β1 activated rabbit corneal keratocytes: type III collagen, tenascin, fibronectin; format: cell-based; details: TGF-β1 (10 ng/ml)+1% FBS, two days, compared to controls with no treatment
Protocol: FIGS. 19A and 19B. Western blot analyses: Rabbit corneal keratocytes were isolated and cultured in serum-free DMEM/F12 into 60 mm tissue culture dishes. After 24 hrs of incubation, the media were replaced with DMEM/F12 medium containing TGF-β1(10 ng/ml)+1% FBS without (control) or with EP or EP-derivatives for two days. The cells were extracted in RIPA buffer and the extracts containing 5 μg of total proteins were loaded per lane for Western blot analysis.
Keratocytes or fibroblasts grown under different culture conditions were extracted in RIPA buffer (9.1 mM dibasic sodium phosphate, 1.7 mM monobasic sodium phosphate, 150 mM NaCl, pH, 7.4, 1% Nonidet P-40, 0.5% sodium deoxycholate, 0.1% SDS, 0.03 TIU/mL aprotinin, 1 mM sodium orthovanadate, and 100 μg/mL phenylmethylsulfonyl fluoride (PMSF)). Aliquots of cell extracts containing 50 or 100 μg protein were subjected to SDS-PAGE. Protein bands on SDS-PAGE were electrophoretically transferred to IMMOBILON-P™ membrane (Millipore Corp., Bedford, Mass.), stained with 0.1% Coomassie blue 250 in 40% methanol/1% acetic acid for 1 minute, destained one to three times with 50% methanol/1% acetic acid, scanned for densitometric comparisons of relative concentrations of proteins per lane, destained with methanol, and subjected to Western blot analysis. Immunoreactive bands were detected using chemiluminescence Western chemiluminescence reagents.
As described in Example 1, corneal stromal cells were isolated from rabbit corneas and cultured using the same procedures. The keratocytes in serum free media were treated with b-FGF (40 ng/ml)+HS (5 μg/ml) with or without 15 mM EP or 1, 2.5 or 5 mM following EP derivatives: 2-oxopropionic acid 3-methoxyphenyl ester, 2-oxopropionic acid 2-ethoxyethyl ester, 2-oxopropionic acid 2-chloroethyl ester, 2-oxopropionic acid isopropyl ester, 2-oxopropionic acid butyl ester, 2-oxopropionic acid p-tolyl ester, 2-oxopropionic acid tert-butyl ester. […] The relative levels of the expression of specific proteins were analyzed by Western blot analyses of the cell lysates as described supra.

[4] = cited from earlier work
[5] = 1 day post-wounding, topical 5% EP every 90 minutes

CCOC(=O)C(C)=O [ethyl pyruvate]
light scattering within the stromal layer (qualitative) ([1]; 1 day post-wounding): dark and quiet stroma | stromal thickness [1, 5]: 89-100 μm | total corneal thickness [1, 5]: 194-207 μm | corneal morphology / light scattering (qualitative) ([1]; 2 days post-wounding): normal in morphology | stromal thickness ([1]; 2 days post-wounding): 80-85 μm | total corneal thickness ([1]; 2 days post-wounding): 142-154 μm | neutrophils (GR-1) by FACS [2]: 61.00±42.53 | levels of type III collagen, tenascin and fibronectin (Western blot) [3]: reduced levels | time to diffuse into the aqueous humor ([4]; applied on the surface of the eye): ≤ 15 min | entry into the anterior chamber ([4]; diffuses through conjunctival tissue or into corneal stroma): within minutes | elimination half-life ([4]; in vivo): approximately 90 minutes
